Assay results reported in patent publication US7968595B2, “Substituted 4-aryl-chromene as activator of caspases and inducer of apoptosis and as antivascular agent and the use thereof” (Cytovia, Inc., priority 2006, dated 2011).

How the values were obtained:
H1299 = assay: Caspase activation assay in H1299 cells; type: cell-based; settings: Homo sapiens, NCI-H1299, 24 h incubation, read-out: Caspase activation potency EC50 H1299
Experimental: (§1) Human breast cancer cell lines T-47D and ZR-75-1, human colon cancer cell line DLD-1 and human non-small cell lung cancer cell line H1299 were grown according to media component mixtures designated by American Type Culture Collection+10% FCS (Invitrogen Corporation), in a 5% CO2−95% humidity incubator at 37° C. T-47D and ZR-75-1 cells were maintained at a cell density between 30 and 80% confluency at a cell density of 0.1 to 0.6×10^6 cells/mL. Cells were harvested at 600×g and resuspended at 0.65×10^6 cells/mL into appropriate media+10% FCS. An aliquot of […] of cells was added to a well of a 96-well microtiter plate containing 5 μl of a 10% DMSO in RPMI-1640 media solution containing about 0.16 to 10 μM of 2,7,8-triamino-4-(3-bromo-4,5-dimethoxy-phenyl)-3-cyano-4H-chromene (1) or other test compounds (0.016 to 1 μM final). An aliquot of 45 μl of cells was added to a well of a 96-well microtiter plate containing 5 μl of a 10% DMSO in RPMI-1640 media solution without test compound as the control sample. The samples were mixed by agitation and then incubated at 37° C. for 24 h in a 5% CO2−95% humidity incubator. After incubation, the samples were removed from the incubator and 50 μl of a solution containing 20 μM of N-(Ac-DEVD)-N′-ethoxycarbonyl-R110 (SEQ ID No:1) fluorogenic substrate (Cytovia, Inc.; U.S. Pat. No. 6,335,429), 20% sucrose (Sigma), 20 mM DTT (Sigma), 200 mM NaCl (Sigma), 40 mM Na PIPES buffer pH 7.2 (Sigma), and 500 μg/ml lysolecithin (Calbiochem) was added. The samples were mixed by agitation and incubated at room temperature. Using a fluorescent plate reader (Model 1420 Wallac Instruments), an initial reading (T=0) was made about 1-2 min after addition of the substrate solution, employing excitation at 485 nm and emission at 530 nm, to determine the background fluorescence of the control sample. After the 3 h incubation, the samples were read for fluorescence as above (T=3 h).
(§2) The Relative Fluorescence Unit values (RFU) were used to calculate the sample readings as follows: RFU(T=3h)−Control RFU(T=0)=Net RFU(T=3h)
(§3) The activity of caspase cascade activation was determined by the ratio of the net RFU value for 2,7,8-triamino-4-(3-bromo-4,5-dimethoxy-phenyl)-3-cyano-4H-chromene or other test compound to that of control samples. The EC50 (nM) was determined by a sigmoidal dose-response calculation (Prism 2.0, GraphPad Software Inc.).

T-47D = assay: Caspase activation assay in T-47D cells; type: cell-based; settings: Homo sapiens; T47D cells, 24 h incubation; read-out: Caspase activation potency EC50 T47D
Experimental: as §1, §2, §3

ZR-75-1 = assay: Caspase activation assay in ZR-75-1 cells; type: cell-based; settings: Homo sapiens, ZR751 cells, 24 h incubation, read-out: Caspase activation potency EC50 ZR751
Experimental: as §1, with “After incubation, the samples were removed from the incubator and 50 μl of a solution containing 20 μM of N-(Ac-DEVD)-N′-ethoxycarbonyl-R110 (SEQ ID No:1) fluorogenic substrate (Cytovia, Inc.; U.S. Pat. No. 6,335,429), 20% sucrose (Sigma), 20 mM DTT (Sigma), 200 mM NaCl (Sigma), 40 mM Na PIPES buffer pH 7.2 (Sigma), and 500 μg/ml lysolecithin (Calbiochem) was added. The samples were mixed by agitation and incubated at room temperature.” left out
as §2, §3

DLD-1 = assay: Caspase activation assay in DLD-1 cells; type: cell-based; settings: Homo sapiens, 24 h incubation, read-out: Caspase activation potency EC50 DLD-1
Experimental: as §1, with “After incubation, the samples were removed from the incubator and 50 μl of a solution containing 20 μM of N-(Ac-DEVD)-N′-ethoxycarbonyl-R110 (SEQ ID No:1) fluorogenic substrate (Cytovia, Inc.; U.S. Pat. No. 6,335,429), 20% sucrose (Sigma), 20 mM DTT (Sigma), 200 mM NaCl (Sigma), 40 mM Na PIPES buffer pH 7.2 (Sigma), and 500 μg/ml lysolecithin (Calbiochem) was added. The samples were mixed by agitation and incubated at room temperature.” left out
as §2, §3

[1] = system: MX1 human breast cancer tumors; assay: In vivo antitumor activity in MX-1 model, combination with cisplatin and doxorubicin; set-up: species or system mice
Experimental: MX1 human breast cancer tumors were obtained from the NCI-FCRDC and maintained as tumors in nude mice. Tumor bits were implanted with a trocar into the right mammary area of female nu/nu mice and allowed to grow to an average size of 200-250 mg, about 12 days after being implanted. Animals were randomized and assigned to study groups of 8-10 animals/group. Body weight were determined and tumor size were measured by calipers and converted to volume by the standard formula of Vol=L×W^2/2. Compound 1R was formulated in 7% PEG400/9% Tween80/84% D5W and administered IV via the tail vein at the indicated days and doses. Day 1 of the study was the first day of treatment. Survival time was the number of days for the tumor to reach 1000 mg or death, whichever occurred earliest. Median survival is the median for the group.
Mice implanted with MX1 human breast cancer tumors were treated with compound 1R as described in EXAMPLE 11. Cisplatin was administered IP whereas doxorubicin was administered IV at the indicated doses.

solid tumor cells = assay: Caspase cascade activation and induction of apoptosis, overall statement; type: cell-based, human; settings: summary of Table I
Experimental: as §1, with “After incubation, the samples were removed from the incubator and 50 μl of a solution containing 20 μM of N-(Ac-DEVD)-N′-ethoxycarbonyl-R110 (SEQ ID No:1) fluorogenic substrate (Cytovia, Inc.; U.S. Pat. No. 6,335,429), 20% sucrose (Sigma), 20 mM DTT (Sigma), 200 mM NaCl (Sigma), 40 mM Na PIPES buffer pH 7.2 (Sigma), and 500 μg/ml lysolecithin (Calbiochem) was added. The samples were mixed by agitation and incubated at room temperature.” left out
as §3

[2] = cisplatin 2 mg/kg, day 2, 9, IP
[3] = doxorubicin 2 mg/kg, day 2, 9, IV

Compound	EC50 (H1299) [nM]	EC50 (T-47D) [nM]	further results
COc1cc(C2C(C#N)=C(N)Oc3c2ccc(N)c3N)cc(Br)c1OC (racemic) [Compound 1, 2,7,8-Triamino-4-(3-bromo-4,5-dimethoxy-phenyl)-3-cyano-4H-chromene]	120	42	EC50 (ZR-75-1): 35 nM; EC50 (DLD-1): 78 nM
COc1cc(C2C(C#N)=C(N)Oc3c2ccc(NC(=O)CN(C)C)c3N)cc(Br)c1OC (stereo not shown) [A]	3340	2540	
COc1cc(C2C(C#N)=C(N)Oc3c2ccc(NC(=O)CCCN)c3N)cc(Br)c1OC (stereo not shown) [B]	5780	5500	
N.N.[Cl][Pt][Cl] [Cisplatin, reference compound]			Median survival [1, 2]: 27 days; Number of tumor free mice at day 91 [1, 2]: 1 of 7; Median survival ([1]; cisplatin 2 mg/kg, day 2, IP): 11 days; Number of tumor free mice at day 91 ([1]; cisplatin 2 mg/kg, day 2, IP): 0 of 9
COc1cc([C@@H]2C(C#N)=C(N)Oc3c2ccc(N)c3N)cc(Br)c1OC [Compound 1S, S(+)-2,7,8-triamino-4-(3-bromo-4,5-dimethoxy-phenyl)-3-cyano-4H-chromene]	3210	2490	Caspase cascade activator and inducer of apoptosis (in words) (solid tumor cells): inactive isomer; EC50 (ZR-75-1): 2010 nM; EC50 (DLD-1): 4570 nM
COc1cc([C@H]2C(C#N)=C(N)Oc3c2ccc(NC(=O)[C@H](C)NC(=O)OCC2c4ccccc4-c4ccccc42)c3N)cc(Br)c1OC [Compound 3, (9H-fluoren-9-yl)methyl(S)-1-((R)-2,8-diamino-3-cyano-4-(3-bromo-4,5-dimethoxyphenyl)-4H-chromen-7-ylcarbamoyl)ethylcarbamate]		2880	
COc1cc([C@H]2C(C#N)=C(N)Oc3c2ccc(NC(=O)[C@H](C)N)c3N)cc(Br)c1OC [Compound 4, (2S)-2-Amino-N—((R)-2,8-diamino-4-(3-bromo-4,5-dimethoxyphenyl)-3-cyano-4H-chromen-7-yl)propanamide]		52	Caspase cascade activator and inducer of apoptosis (in words) (solid tumor cells): potent caspase cascade activator and inducer of apoptosis
COc1cc([C@H]2C(C#N)=C(N)Oc3c2ccc(NC(=O)CNC(=O)OCC2c4ccccc4-c4ccccc42)c3N)cc(Br)c1OC [Compound 5, (9H-fluoren-9-yl)methyl((R)-2,8-diamino-4-(3-bromo-4,5-dimethoxyphenyl)-3-cyano-4H-chromen-7-ylcarbamoyl)methylcarbamate]		2440	
COc1cc(C2C(C#N)=C(N)Oc3c2ccc(NC(=O)C2CCCN2)c3N)cc(Br)c1OC (stereo not shown) [Compound E]	5330	3900	
COc1cccc2c1C(=O)c1c(O)c3c(c(O)c1C2=O)C[C@@](O)(C(=O)CO)C[C@@H]3O[C@H]1C[C@H](N)[C@H](O)[C@H](C)O1 [Doxorubicin, reference compound]			Median survival [1, 3]: 11 days; Number of tumor free mice at day 91 [1, 3]: 0 of 9

More lines, main results first:

EC50 (H1299) [nM]	EC50 (T-47D) [nM]	Compound	further results
273	160	COc1cc(C2C(C#N)=C(N)Oc3c2ccc(NC(=O)CN)c3N)cc(Br)c1OC (stereo not shown) [C]	
	60	COc1cc([C@H]2C(C#N)=C(N)Oc3c2ccc(NC(=O)CN)c3N)cc(Br)c1OC [Compound 6, 2-Amino-N—((R)-2,8-diamino-4-(3-bromo-4,5-dimethoxyphenyl)-3-cyano-4H-chromen-7-yl)acetamide]	
> 10000	> 10000	COc1cc(C2C(C#N)=C(N)Oc3c2ccc(NC(=O)C[N+](C)(C)C)c3N)cc(Br)c1OC (stereo not shown) [D]	
5670	4120	COc1cc(C2C(C#N)=C(N)Oc3c2ccc(NC(=O)C(N)COC(C)=O)c3N)cc(Br)c1OC (stereo not shown) [F]	
3750	1420	COc1cc(C2C(C#N)=C(N)Oc3c2ccc(NC(=O)[C@H](N)CCCCN)c3N)cc(Br)c1OC (stereo partly shown) [G]	
